Data on two compounds can be found in patent US7655643B2, “Antibacterial macrocycles with substituted biphenyl” (AiCuris GmbH & Co. KG, priority 2003, dated 2010).

Structures are written as SMILES. In brackets after ≈: the same amount, converted by molar mass. Counter-ions that a name gives are not always drawn. Like-named read-outs stand apart in the source and are kept apart here. A value given as a limit tells only on which side of the number the result lay.

Assay [1] addresses S. aureus 133 Translation. In words: S. aureus in vitro transcription-translation assay (firefly luciferase, S30 extract). It is filed as biochemical. Particulars: Table B. From the text: In order to construct a reporter plasmid which can be used in an in vitro transcription -translation assay from S. aureus the plasmid pBESTluc (Promega Corporation, USA) is used. The E. coli tac promoter present in this plasmid in front of the firefly luciferase is replaced by the capA1 promoter with appropriate Shine-Dalgarno sequence from S. aureus. The primers CAPFor 5′-[…] -[…]-3′ and CAPRev 5′-[…]-3′ are used for this. The primer CAPFor contains the capA1 promoter, the ribosome binding site and the 5′ region of the luciferase gene. After PCR using pBESTluc as template it is possible to isolate a PCR product which contains the firefly luciferase gene with the fused capA1 promoter. This is, after restriction with ClaI and HindIII, ligated into the vector pBESTluc which has likewise been digested with ClaI and HindIII. The resulting plasmid pla can be replicated in E. coli and be used as template in the S. aureus in vitro transcription-translation assay.
Six liters of BHI medium are inoculated with a 250 ml overnight culture of a S. aureus strain and allowed to grow at 37° C. until the OD600 nm is 2-4. The cells are harvested by centrifugation and washed in 500 ml of cold buffer A (10 mM Tris acetate, pH 8.0, 14 mM magnesium acetate, 1 mM DTT, 1 M KCl). After renewed centrifugation, the cells are washed in 250 ml of cold buffer A with 50 mM KCl, and the resulting pellets are frozen at −20° C. for 60 min. The pellets are thawed on ice in 30 to 60 min and taken up to a total volume of 99 ml in buffer B (10 mM Tris acetate, pH 8.0, 20 mM magnesium acetate, 1 mM DTT, 50 mM KCl). 1.5 ml lysostaphin (0.8 mg/ml) in buffer B are introduced into 3 precooled centrifuge cups each and each mixed with 33 ml of the cell suspension. The samples are incubated at 37° C., shaking occasionally, for 45 to 60 min, before 150 μl of a 0.5 M DTT solution are added. The lysed cells are centrifuged at 30 000×g and 4° C. for 30 min. The cell pellet is taken up in buffer B and then centrifuged again under the same conditions, and the collected supernatants are combined. The supernatants are centrifuged again under the same conditions, and 0.25 volumes of buffer C (670 mM Tris acetate, pH 8.0, 20 mM magnesium acetate, 7 mM Na3 phosphoenolpyruvate, 7 mM DTT, 5.5 mM ATP, 70 μM amino acids (complete from Promega), 75 μg of pyruvate kinase (Sigma, Germany)/ml are added to the upper ⅔ of the supernatant. The samples are incubated at 37° C. for 30 min. The supernatants are dialysed against 21 of dialysis buffer (10 mM Tris acetate, pH 8.0, 14 mM magnesium acetate, 1 mM DTT, 60 mM potassium acetate) in a dialysis tube with a 3500 Da cut-off with one buffer change at 4° C. overnight. The dialysate is concentrated to a protein concentration of about 10 mg/ml by covering the dialysis tube with cold PEG 8000 powder (Sigma, Germany) at 4° C. The S30 extracts can be stored in aliquots at −70° C.
Inhibition of protein biosynthesis of the compounds can be shown in an in vitro transcription-translation assay. The assay is based on the cell-free transcription and translation of firefly luciferase using the reporter plasmid pla as template and cell-free S30 extracts obtained from S. aureus. The activity of the resulting luciferase can be detected by luminescence measurement.
The amount of S30 extract or plasmid plato be employed must be tested anew for each preparation in order to ensure an optimal concentration in the assay. 3 μl of the substance to be tested, dissolved in 5% DMSO, are introduced into an MTP. Then 10 μl of a suitably concentrated plasmid solution p1 a are added. Then 46 μl of a mixture of 23 μl of premix (500 mM Potassium acetate, 87.5 mM Tris acetate, pH 8.0, 67.5 mM ammonium acetate, 5 mM DTT, 50 μg of folic acid/ml, 87.5 mg of PEG 8000/ml, 5 mM ATP, 1.25 mM each NTP, 20 μM each amino acid, 50 mM PEP (Na3 salt), 2.5 mM cAMP, 250 μg each E. coli tRNA/ml) and 23 μl of a suitable amount of S. aureus S30 extract are added and mixed. […]

The next assay concerns S. aureus 133. In words: MIC, alternative method, agar dilution test. Type of assay: cell-based. How it is done:
(§1) The minimum inhibitory concentration (MIC) is the minimum concentration of an antibiotic with which the growth of a test microbe is inhibited over 18-24 h. The inhibitor concentration can be determined by standard microbiological methods using modified medium in an agar dilution test (see, for example, the National Committee for Clinical Laboratory Standards. Methods for dilution antimicrobial susceptibility tests for bacteria that grow aerobically; approved standard-fifth edition. NCCLS document M7-A5 [ISBN 1-56238-394-9]. NCCLS, 940 West Valley Road, Suite 1400, Wayne, PA. 19087-1898 USA, 2000). The bacterial microbes are cultivated on 1.5% agar plates containing 20% defibrinated horse blood. The test microbes, which are incubated on Columbia blood agar plates (Becton-Dickinson) overnight, are diluted in PBS, adjusted to a microbe count of about 5×10^5 microbes/ml and placed as drops (1-3 μl) on test plates. The test substances contain various dilutions of the test substances (1:2 dilution stages). The cultures are incubated at 37° C. in the presence of 5% CO2 for 18-24 hours.
(§2) The lowest concentration of each substance at which no visible bacterial growth occurs is defined as the MIC and is reported in μg/ml.

A further assay deals with S. aureus T17. In words: MIC, alternative method, agar dilution test. Type of assay: cell-based. Particulars: Staphylococcus aureus. How it is done: as §1, §2
For orientation: Agar dilution tests growth on a series of plates holding different concentrations.

The subject of a further assay is E. faecium L4001. Briefly: MIC, alternative method, agar dilution test. The conditions noted are these: Enterococcus faecium. Type of assay: cell-based, Enterococcus faecium. On the procedure:
as §1, §2

Usually IC50 stands for the point on the concentration scale where inhibition reaches its midpoint. A higher IC50 goes with a need for much substance. For orientation: MIC means the least concentration at which growth counts as inhibited. `CN1C(=O)[C@H](CCCN)NC(=O)[C@@H](N)Cc2cc(ccc2O)-c2ccc(Cl)c(c2)C[C@H]1C(=O)NCCN(CCN)CCN` [Example 42, (8S,11S,14S)-14-Amino-11-(3-aminopropyl)-N-{2-[bis(2-aminoethyl)amino]ethyl}-5-chloro-17-hydroxy-9-methyl-10,13-dioxo-9,12-diazatricyclo[14.3.1.1^2,6]henicosa-1(20),2(21)3,5,16,18-hexaene-8-carboxamide penta(hydrotrifluoroacetate)] gave an IC50 in assay [1] of 80 nM. Besides, the minimum inhibitory concentration (MIC) is 2 µg/mL (≈ 3.24 µM) in the assay on S. aureus 133 (Staphylococcus aureus, 133, agar dilution, 1.5% agar with 20% defibrinated horse blood, 5% CO2, 18-24 h, read-out: MIC S. aureus 133); 2 µg/mL (≈ 3.24 µM) in the assay on S. aureus T17 (T17, agar dilution, 1.5% agar with 20% defibrinated horse blood, 5% CO2, 18-24 h, read-out: MIC S. aureus T17); 32 µg/mL (≈ 51.8 µM) in the assay on E. faecium L4001 (L4001, agar dilution, 1.5% agar with 20% defibrinated horse blood, 5% CO2, 18-24 h, read-out: MIC E. faecium L4001).

On to `NCCC[C@@H]1NC(=O)[C@@H](N)Cc2cc(ccc2O)-c2ccc(N)c(c2)C[C@@H](C(=O)NCCN)NC1=O` [Example 43, (8S,11S,14S)-5,14-Diamino-N-(2-aminoethyl)-11-(3-aminopropyl)-17-hydroxy-10,13-dioxo-9,12-diazatricyclo[14.3.1.1^2,6]henicosa-1(20),2(21),3,5,16,18-hexaene-8-carboxamide tetrahydrochloride], for which the IC50 in assay [1] turned out to be 900 nM. Further, the MIC in the assay with S. aureus 133 (Staphylococcus aureus, 133, read-out: MIC S. aureus 133) was 2 µg/mL; with S. aureus T17 (T17, read-out: MIC S. aureus T17) it was 4 µg/mL; with E. faecium L4001 (L4001, read-out: MIC E. faecium L4001), over 32 µg/mL.
